From patent publication US20240325548A1, “DYNAMIC BIOACTIVE SCAFFOLDS AND THERAPEUTIC USES THEREOF AFTER CNS INJURY” (Northwestern University, priority 2021, published 2024)

How the values were obtained:
[1] = test system: human umbilical vein vascular endothelial cells (HUVECs); test: HUVEC branching / capillary network formation; assay type: cell-based; conditions: within 48 h of culture
Experimental: (§1) Human umbilical vein cord (HUVECs) (pooled donor, LONZA, Allendale, New Jersey) were grown to 70-80% confluence for each experiment (P2-P4) in a T-75 cell culture flask using complete media (Endo GRO-VEGF Complete Culture Media Kit, Millipore) supplemented with 1% penicillin-streptomycin. Media was changed every 3 days.
Treatments were prepared by dissolving the co-assembled PAs in media without serum. The total concentration of FGF2 PAs per treatment was 0.5 μM. FGF-2 native protein (Peprotech) was resuspended and used at 0.25 nM. For western blot experiments, HUVEC were cultured in 12 well plates at a density of approximately 150,000 cells/well for 2 days in vitro before being treated. Treatments were added for 2 h-2 days in vitro before cell lysates were harvested or cells were fixed. […]
To assess in vitro tubulogenesis and in vivo angiogenesis, an ImageJ (Fiji) script was established to automatically calculate 1) area fraction of blood vessels, 2) blood vessels length, and 3) number of branches. Images were processed, binarized and analyzed. Newly generated blood vessels in vivo were identified by quantifying the amount of CD31/BrdU double-positive cells within the region of interest. […] The quantified cross sections were chosen as the first serial cross sections within the lesion that had DiI staining.

FGFR1 and ITGB1 = target: T1, FGFR1 and ITGB1 (Homo sapiens, UniProt P11362); test: p-FGFR1 and active ITGB1 in hNPCs on co-assembled PA coatings (WB); assay type: cell-based
T1 construct: endogenous in cells; host or cells: hNPCs differentiated from human embryonic stem cells HUES 64, seeded on co-assembled PA coatings
T1 sequence (P11362 22-822): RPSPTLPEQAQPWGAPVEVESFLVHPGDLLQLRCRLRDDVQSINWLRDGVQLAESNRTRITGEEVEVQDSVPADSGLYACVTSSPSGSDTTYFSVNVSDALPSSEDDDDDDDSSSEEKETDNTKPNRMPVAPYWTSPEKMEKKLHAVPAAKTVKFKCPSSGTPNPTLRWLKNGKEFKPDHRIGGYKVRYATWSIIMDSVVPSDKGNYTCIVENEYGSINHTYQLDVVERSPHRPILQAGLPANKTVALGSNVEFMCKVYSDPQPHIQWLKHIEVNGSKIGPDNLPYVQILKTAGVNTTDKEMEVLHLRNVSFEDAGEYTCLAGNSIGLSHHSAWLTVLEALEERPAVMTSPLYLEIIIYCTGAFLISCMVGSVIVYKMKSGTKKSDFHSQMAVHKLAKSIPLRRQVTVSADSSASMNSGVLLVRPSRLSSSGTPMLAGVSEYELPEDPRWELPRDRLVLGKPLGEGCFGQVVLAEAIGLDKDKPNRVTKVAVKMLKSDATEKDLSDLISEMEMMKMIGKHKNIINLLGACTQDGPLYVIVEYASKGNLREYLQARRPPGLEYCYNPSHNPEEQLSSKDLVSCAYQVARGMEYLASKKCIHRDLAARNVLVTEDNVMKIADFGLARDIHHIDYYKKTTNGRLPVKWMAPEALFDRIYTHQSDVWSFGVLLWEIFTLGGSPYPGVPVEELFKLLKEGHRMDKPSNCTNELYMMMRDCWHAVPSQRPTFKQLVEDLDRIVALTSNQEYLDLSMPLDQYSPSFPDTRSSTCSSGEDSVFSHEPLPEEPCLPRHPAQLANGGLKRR
Experimental: (§2) For IKVAV PA treatments, hNPCs were cultured on ornithine coatings (German Glass, Chemglass Life Science) in 6 well and 24 well plates at a density of 500,000 cells/well and 80,000 cells/well respectively. hNPCs were treated with […] of IKVAV PAs ([PA]=6 mM, [KCl]=3 mM, [NaCl]=150 mM) or recombinant laminin protein (10 mg/mL) in solution. IKVAV PA2 and IKVAV PA5 were also mixed with 5 mM CaCl2) at a ratio PA:CaCl2) 6:1 to treat hNPCs. For 2D experiments, hNPCs were cultured on the different IKVAV PAs or laminin coatings in 6 well and 24 well plates at densities mentioned above. For co-assembled experiments, hNPCs were cultured on the different co-assembled PA coatings in 6 well and 24 well plates at a density of 400,000 cells/well and 50,000 cells/well respectively.
(§3) hNPCs were fed 4 times a week with DMEM: F12+N2^+B27 medium with hyclone penicillin-streptomycin and ascorbic acid. After 24 h, 72 h 1- or 2-weeks in vitro, cell lysates were harvested or fixed for WB or ICC, respectively. Three replicates per condition and at least three independent experiments were carried out for all conditions investigated.
(§4) RIPA buffer (Thermofisher) with a cocktail of Halt Protease and Phosphatase Inhibitors (Thermofisher) was used to extract protein from in vitro and in vivo samples. For in vivo studies, spinal cord tissue was then sonicated using a horn sonicator (Branson) to break up the tissue. […]

hNPCs = test: hNPC attachment, proliferation and phenotype on co-assembled PA coatings (EdU, SOX-2, PAX6); assay type: cell-based, human
Source text: Neural progenitor cells (NPCs) were differentiated from human embryonic stem cells HUES 64 (Harvard University) (see FIG. 2C). In short, 70% confluent stem cell cultures grown in Matrigel (Thermo Fisher) coated plates with mTESR medium (STEMCELL Technologies), were switched to N2B27 medium (50% DMEM: F12, 50% Neurobasal, supplemented with NEAA, Glutamax, N2 and B27; Gibco) containing dual SMAD inhibitors (SB431542, DNSK International and LDN-193189, Tocris) for 12 days to induce the generation of neural progenitors. Neuralization was enhanced by supplementing medium with laminin from day 5 to 12. Next, neural rosettes were dissociated with neural rosette selection reagent (STEMCELL Technologies) to obtain NPCs, which are expanded in N2B27 (Gibco) medium supplemented with bFGF (Millipore). For experimentation in the different PA platforms, NPCs were dissociated with Accutase (Innovative Cell technology), and cultured in the distinct platforms with DMEM: F12+N2+B27 medium with hyclone penicillin-streptomycin (GE Healthcare) and ascorbic acid (0.2 μg/mL; Sigma-Aldrich).
as §2, §3
For the hNPCs proliferation assay, 2 μM of the thymidine analog 5-ethynyl-2′-deoxyuridine (EdU, Thermo Fisher) was incorporated into the culture medium for 24 h. Cells were fixed at the indicated time points in 4% paraformaldehyde (PFA) for 15 min at RT. After fixation, samples were washed in PBS twice and then stained with Click-iT™ EdU Cell Proliferation Kit containing 11 mM CuSO4 (from 50 mM stock) and 1 μg/mL of Alexa Fluor-555 azide (from 0.5 mg/mL, Thermo Fisher) for 30 minutes at RT in the dark. The staining cocktail was then removed, and cells were washed with PBS. Then, hNPCs were counterstained with anti-rabbit SOX-2 antibody following the immunofluorescence protocol described below and 4′, 6-diamidino-2-phenylindole (DAPI, Thermo Fisher) at 5 μg/mL in PBS for 20 min at RT. The cells were then washed with PBS and mounted with Immu-Mount (Fisher Scientific) for imaging.
For immunofluorescence, fixed primary cultures or free-floating tissue sections (40 m Thick) were incubated in blocking buffer containing 0.02% Triton-X (Sigma-Aldrich), 1% NHS (Gibco) and PBS 1× (Gibco). Samples were incubated with primary antibodies over night at 4° C. Alexa-488, Alexa-555 and/or Alexa-647 (1:500, Thermofisher) were used as secondary antibodies. DAPI (1:500, Thermofisher) was used to stain nuclei. […]

FGFR1 = target: T2, FGFR1 (Homo sapiens, UniProt P11362); test: FGF-2 intracellular signaling pathway in HUVECs (WB p-FGFR1, p-ERK1/2); assay type: cell-based
T2 construct: host or cells: HUVECs (pooled donor)
T2 sequence (P11362 22-822): as above
Experimental: as §1
Treatments were prepared by dissolving the co-assembled PAs in media without serum. The total concentration of FGF2 PAs per treatment was 0.5 μM. FGF-2 native protein (Peprotech) was resuspended and used at 0.25 nM. For western blot experiments, HUVEC were cultured in 12 well plates at a density of approximately 150,000 cells/well for 2 days in vitro before being treated. Treatments were added for 2 h-2 days in vitro before cell lysates were harvested or cells were fixed. For PA coatings, PAs were painted on the coverslips (German Glass, Chemglass Life Science) or tissue culture plates as described in the Co-assembled PA preparation section. Three replicates per condition and three independent experiments were carried out for all conditions investigated.
as §4

native FGF-2: FGF-2 native protein (Peprotech), positive control
branching and vessel-like capillary network formation [1]: extensive branching and formation of vessel-like capillary networks | P-FGFR-1 expression (FGFR1 and ITGB1): highly expressed | percentage of proliferating EdU+ and SOX2+ cells (hNPCs): increased | levels of p-FGFR1 and downstream p-ERK1/2 (FGFR1): high levels
